Test results as given in BigSolDB 2.1.

O=C(O)COc1ccc(Cl)cc1
solubility (mole fraction)
Settings	283.15 K	288.15 K	293.15 K	298.15 K	303.15 K	308.15 K	313.15 K	318.15 K	323.15 K
in 1,4-dioxane	–	0.113	0.124	0.135	0.146	0.16	0.176	0.194	0.212
in acetonitrile	0.00781	0.00938	0.0114	0.0134	0.0159	0.0198	0.0241	0.0298	0.0359
in ethanol	0.0308	0.0347	0.0406	0.0472	0.0545	0.0643	0.0796	0.0962	0.114
in ethyl acetate	0.0266	0.0303	0.036	0.0413	0.0468	0.0537	0.0637	0.0731	0.0827
in ethyl formate	0.0139	0.0164	0.0193	0.0223	0.0254	0.0299	0.036	0.0423	0.0487
in isobutanol	0.0146	0.0178	0.0224	0.0286	0.0365	0.0453	0.0558	0.0688	0.0843
in isopropanol	0.0214	0.0267	0.0324	0.039	0.0476	0.0586	0.0703	0.0844	0.0997
in methyl acetate	0.0285	0.0325	0.0379	0.0433	0.0496	0.0567	0.0659	0.0766	0.0882
in n-butanol	0.0243	0.0282	0.0343	0.0415	0.0501	0.0604	0.0721	0.0855	0.101
in n-butyl acetate	0.0218	0.0246	0.0289	0.0334	0.0387	0.0446	0.0514	0.0593	0.0682
in n-propanol	0.0255	0.0292	0.0348	0.0415	0.0506	0.0618	0.0748	0.089	0.11
in n-propyl acetate	0.0235	0.0268	0.0303	0.035	0.0398	0.0454	0.0524	0.0604	0.0698
in sec-butanol	0.0224	0.0279	0.034	0.0413	0.0505	0.0617	0.0745	0.0888	0.107
